Laboratory results as given in PubChem BioAssay (NCI).
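Following 48 hours of exposure in 96-well plates, responses at five concentrations were used to interpolate endpoints linearly. TGI: concentration producing complete growth inhibition.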

Legend:
Assay in all cases: DTP human tumour cell line panel, 48 h
COLO 205 colon = test system: COLO 205 colon
NCI-H226 lung = test system: NCI-H226 lung
IGROV1 ovarian = test system: IGROV1 ovarian
ACHN renal = test system: ACHN renal
SF-539 CNS = test system: SF-539 CNS
A549 NSCLC = test system: A549 NSCLC
MDA-MB-435 = test system: MDA-MB-435
NCI-H23 lung = test system: NCI-H23 lung
HCC-2998 colon = test system: HCC-2998 colon
OVCAR-5 ovarian = test system: OVCAR-5 ovarian

Structure (SMILES) | TGI (COLO 205 colon) | TGI (NCI-H226 lung) | TGI (IGROV1 ovarian) | TGI (ACHN renal) | TGI (SF-539 CNS) | TGI (A549 NSCLC) | TGI (MDA-MB-435) | TGI (NCI-H23 lung) | TGI (HCC-2998 colon) | TGI (OVCAR-5 ovarian)
O=C(Cn1nc(Br)c(Br)c1Br)c1ccccc1 | 36.9 µM | 63.5 µM | > 100 µM | 76.2 µM | 45.1 µM | 89.7 µM | > 100 µM | 94.3 µM | > 100 µM | > 100 µM
COc1cc(OC)c2c(c1OC)OCC(Cc1ccc(O)cc1)C2=O (configuration not stated) | > 25 µM | > 25 µM | > 25 µM | > 25 µM | > 25 µM | > 25 µM | > 25 µM | > 25 µM | – | > 25 µM
CCCN1C(=O)CCC2=C1CCc1c2ccc(Cl)c1Cl | > 100 µM | > 100 µM | > 100 µM | > 100 µM | 95.4 µM | > 100 µM | > 100 µM | > 100 µM | 49.8 µM | 82 µM
CC(C)(C)c1ccc(CN2CCN(C(c3ccccc3)c3ccc(Cl)cc3)CC2)cc1 (configuration not stated) | > 100 µM | 62.2 µM | > 100 µM | > 100 µM | > 100 µM | > 100 µM | > 100 µM | > 100 µM | 89.4 µM | > 100 µM
CC1CCCC2=C1C(c1ccc(Cl)cc1)n1c(s/c(=C\c3ccc(Cl)cc3)c1=O)=N2 (configuration not stated) | > 100 µM | – | > 100 µM | > 100 µM | – | > 100 µM | > 100 µM | – | – | > 100 µM
NNC(=O)CNC(=O)CSc1nnc(COc2ccc(Cl)cc2)n1-c1ccccc1 | > 100 µM | > 100 µM | > 100 µM | > 100 µM | > 100 µM | > 100 µM | > 100 µM | > 100 µM | > 100 µM | > 100 µM
COc1ccc(C2SCC(=O)N2c2ccc(-c3ccc(-n4c(-c5ccccc5)nc5ccccc5c4=O)cc3)cc2)cc1 (configuration not stated) | > 100 µM | > 100 µM | > 100 µM | > 100 µM | > 100 µM | > 100 µM | > 100 µM | > 100 µM | > 100 µM | 87.2 µM
O=C1c2ccccc2CC12Cc1cc3c(cc1C2=O)CCC3 (configuration not stated) | – | – | > 100 µM | > 100 µM | > 100 µM | > 100 µM | > 100 µM | > 100 µM | > 100 µM | > 100 µM
CC[C@@]1(O)C(=O)OCc2c1cc1n(c2=O)Cc2c-1nc1ccccc1c2CC[Si](C)(C)C | 14.2 µM | < 0.0467 µM | > 100 µM | – | 3.32 µM | 7.61 µM | > 100 µM | 0.0213 µM | 0.713 µM | 6.59 µM
CCOP(=O)(/C=C\n1cnc2c(=O)n(C(C)=O)c(N)nc21)OCC | > 100 µM | > 100 µM | > 100 µM | > 100 µM | > 100 µM | > 100 µM | > 100 µM | > 100 µM | – | > 100 µM
CC(=O)c1ccc(Oc2ccc(/C(C)=N\N=C(N)N)cc2)cc1 | 3.26 µM | – | 18.2 µM | 17.4 µM | 3.48 µM | 14.5 µM | – | 12.8 µM | 20.8 µM | 17.4 µM
O=c1[nH]c2ccc(CC(=S)N3CCOCC3)cc2s1 | > 100 µM | > 100 µM | > 100 µM | > 100 µM | > 100 µM | – | > 100 µM | > 100 µM | – | > 100 µM
